# According to patent publication US7425557B2, “Inhibitors of glycogen synthase kinase 3” (Novartis Vaccines and Diagnostics, Inc., priority 1998, dated 2008):
# Target: human GSK3β (Homo sapiens, UniProt P49841)
# Test: Screening for GSK3 inhibitory activity using a cell-free assay
# Format: biochemical
# Conditions: read-out: IC50 with respect to GSK3
# In short: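 Radiometric cell-free assay with recombinant human GSK3β phosphorylating a biotinylated peptide substrate for 3 h. Reactions were stopped with 50 μM ATP/20 mM EDTA and captured on streptavidin plates. Incorporated radiolabel was counted by scintillation and plotted against compound concentration.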
# Sequence of human GSK3β (P49841 whole entry): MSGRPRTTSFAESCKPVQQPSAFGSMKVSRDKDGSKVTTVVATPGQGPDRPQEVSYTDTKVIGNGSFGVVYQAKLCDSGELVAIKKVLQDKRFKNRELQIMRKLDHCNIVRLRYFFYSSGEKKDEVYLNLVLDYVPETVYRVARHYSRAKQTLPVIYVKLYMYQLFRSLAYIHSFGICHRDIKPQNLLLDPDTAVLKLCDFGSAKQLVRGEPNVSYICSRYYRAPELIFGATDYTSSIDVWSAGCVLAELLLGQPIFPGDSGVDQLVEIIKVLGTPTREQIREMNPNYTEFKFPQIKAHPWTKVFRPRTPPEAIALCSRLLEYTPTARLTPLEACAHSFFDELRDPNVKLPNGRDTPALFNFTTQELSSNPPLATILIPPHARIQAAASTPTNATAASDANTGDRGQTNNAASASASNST
row,IC50 [nM],Compound
1,≤ 1000,CCOC(=O)c1cnc(NCCNc2ccc([N+](=O)[O-])cn2)nc1-c1ccc(N(C)C)cc1 [ethyl 4-[4-(dimethylamino)phenyl]-2-({2-[(5-nitro(2-pyridyl))amino]ethyl}-amino)pyrimidine-5-carboxylate]
2,≤ 1000,CCOC(=O)c1cnc(NCCNc2ccc([N+](=O)[O-])cn2)nc1-c1ccc(C#N)cc1 [ethyl 4-(4-cyanophenyl)-2-({2-[(5-nitro(2-pyridyl))amino]ethyl}amino)pyrimidine-5-carboxylate]
3,≤ 10000,COC(=O)c1cnc(NCCNc2ccc([N+](=O)[O-])cn2)nc1-c1cccnc1 [methyl 2-({2-[(5-nitro(2-pyridyl))amino]ethyl}amino)-4-(3-pyridyl)pyrimidine-5-carboxylate]
4,≤ 1000,"Nc1nc(NCCNc2ncc(CO)c(-c3ccc(Cl)cc3Cl)n2)ccc1[N+](=O)[O-] [[2-({2-[(6-amino-5-nitro(2-pyridyl))amino]ethyl}amino)-4-(2,4-dichlorophenyl)pyrimidin-5-yl]methan-1-ol]"
5,≤ 1000,COC(=O)c1cnc(NCCNc2ccc([N+](=O)[O-])cn2)nc1-c1ccc(C#N)cc1 [methyl 4-(4-cyanophenyl)-2-({2-[(5-nitro(2-pyridyl))amino]ethyl}amino)pyrimidine-5-carboxylate]
6,≤ 1000,CN(C)CCCCOC(=O)c1cnc(NCCNc2ccc([N+](=O)[O-])cn2)nc1-c1ccc(C#N)cc1
7,≤ 1000,CCOC(=O)c1cnc(NCCNc2ccc([N+](=O)[O-])c(N)n2)nc1-c1ccc(N2CCOCC2)cc1 [ethyl 2-({2-[(6-amino-5-nitro(2-pyridyl))amino]-ethyl}amino)-4-(4-morpholin-4-ylphenyl)pyrimidine-5-carboxylate]
8,≤ 1000,CCOC(=O)c1cnc(NCCNc2ccc([N+](=O)[O-])cn2)nc1-c1ccc2c(c1)OCO2
9,≤ 1000,CCOC(=O)c1cnc(NCCNc2ccc([N+](=O)[O-])cn2)nc1-c1ccc(OC(F)(F)F)cc1
10,≤ 10000,Cc1nc(NCCNc2ccc([N+](=O)[O-])cn2)ncc1C(=O)O [4-methyl-2-({2-[(5-nitro(2-pyridyl))amino]ethyl}amino)pyrimidine-5-carboxylic acid]
11,≤ 1000,"Nc1nc(NCCNc2ccc([N+](=O)[O-])c(-c3ccc(Cl)cc3Cl)n2)ccc1[N+](=O)[O-] [{2-[(6-amino-5-nitro(2-pyridyl))amino]ethyl}[6-(2,4-dichlorophenyl)-5-nitro(2-pyridyl)]amine]"
12,≤ 1000,"CCOC(=O)c1cnc(NCCNc2ccc([N+](=O)[O-])c(N)n2)nc1-c1ccc(Cl)cc1Cl [ethyl 2-({2-[(6-amino-5-nitro(2-pyridyl))amino]ethyl}amino)-4-(2,4-dichlorophenyl)-pyrimidine-5-carboxylate]"
13,≤ 1000,Nc1nc(NCCNc2ncc(C(=O)O)c(-c3ccc([N+](=O)[O-])cc3)n2)ccc1[N+](=O)[O-]
14,≤ 1000,N#Cc1ccc(-c2nc(NCCNc3ccc([N+](=O)[O-])cn3)ncc2C(=O)NCCO)cc1 [[4-(4-cyanophenyl)-2-({2-[(5-nitro(2-pyridyl))amino]ethyl}amino)pyrimidin-5-yl]-N-(2-hydroxyethyl)carboxamide]
15,≤ 1000,CCOC(=O)c1cnc(NCCNc2ccc([N+](=O)[O-])cn2)nc1-c1ccc(N2CCOCC2)cc1 [ethyl-4-(morpholin-4-ylphenyl)-2-({2-[(5-nitro(2-pyridyl))amino]ethyl}amino)pyrimidine-5-carboxylate]
16,≤ 1000,CCOC(=O)c1cnc(NCCNc2ncc([N+](=O)[O-])c(N)n2)nc1-c1ccc(C#N)cc1 [ethyl 2-({2-[(4-amino-5-nitropyrimidin-2-yl)amino]ethyl}amino)-4-(4-cyanophenyl)pyrimidine-5-carboxylate]
17,≤ 1000,N#CCNC(=O)c1cnc(NCCNc2ccc([N+](=O)[O-])cn2)nc1-c1ccc(C#N)cc1 [N-(cyanomethyl)[4-(4-cyanophenyl)-2-({2-[(5-nitro(2-pyridyl))amino]ethyl}amino)pyrimidin-5-yl]carboxamide]
18,≤ 1000,CCOC(=O)c1c(CC)nc(NCCNc2ccc([N+](=O)[O-])cn2)nc1-c1ccc(C(N)=O)cc1 [ethyl 4-(4-carbamoylphenyl)-6-ethyl-2-({2-[(5-nitro(2-pyridyl))amino]ethyl}amino)pyrimidine-5-carboxylate]
19,≤ 1000,N#Cc1ccc(-c2nc(NCCNc3ccc([N+](=O)[O-])cn3)ncc2C(=O)O)cc1 [4-(4-cyanophenyl)-2-({2-[(5-nitro(2-pyridyl))amino]ethyl}amino)pyrimidine-5-carboxylic acid]
20,≤ 1000,CNC(=O)c1cnc(NCCNc2ccc([N+](=O)[O-])cn2)nc1-c1ccc(C#N)cc1 [[4-(4-cyanophenyl)-2-({2-[(5-nitro(2-pyridyl))amino]ethyl}amino)-pyrimidin-5-yl]-N-methylcarboxamide]

# Continued, molecule first:
row,Compound,IC50 [nM]
1,O=[N+]([O-])c1cnc(NCCNc2ccccn2)nc1-c1ccccc1 [(5-nitro-4-phenylpyrimidin-2-yl)[2-(2-pyridylamino)ethyl]amine],≤ 1000
2,O=C(NCCc1ccccc1)c1ccc(-c2ccnc(NCCNc3ccc([N+](=O)[O-])cn3)n2)cc1 [{4-[2-({2-[(5-nitro(2-pyridyl))amino]ethyl}amino)-pyrimidin-4-yl]phenyl}-N-(2-phenylethyl)carboxamide],≤ 10000
3,COCCNc1nc(NCCNc2ccc([N+](=O)[O-])cn2)ccc1[N+](=O)[O-] [{6-[(2-methoxyethyl)amino]-5-nitro(2-pyridyl)}{2-[(5-nitro(2-pyridyl))amino]ethyl}amine],≤ 10000
4,N#Cc1ccc(-c2ccnc(NCCNc3ccccn3)n2)cc1 [4-(2-{[2-(2-pyridylamino)ethyl]amino}pyrimidin-4-yl)benzenecarbonitrile],≤ 10000
5,CCOC(=O)c1cnc(NCCNc2ccc([N+](=O)[O-])cn2)nc1NCc1ccccc1Cl [ethyl 4-{[(2-chlorophenyl)methyl]amino}-2-({2-[(5-nitro(2-pyridyl))amino]ethyl}amino)pyrimidine-5-carboxylate],≤ 10000
6,NC(=O)c1ccc(-c2ccnc(NCc3cccc(-c4cccc(C(F)(F)F)c4)c3)n2)cc1 [4-{2-[({3-[3-(trifluoromethyl)phenyl]phenyl}methyl)amino]pyrimidin-4-yl}benzamide],≤ 10000
7,O=[N+]([O-])c1ccc(NCCNc2nccc(NCc3ccc(Cl)cc3Cl)n2)nc1,≤ 10000
8,"O=[N+]([O-])c1ccc(NCCNc2nccc(-c3ccc(-c4nc(Cl)c(Cl)[nH]4)cc3)n2)nc1 [{4-[4-(4,5-dichloroimidazol-2-yl)phenyl]-pyrimidin-2-yl}{2-[(5-nitro(2-pyridyl))amino]ethyl}amine]",≤ 10000
9,"CN1CCN(c2ccc(NCCNc3ccc([N+](=O)[O-])c(N)n3)nc2-c2cccnc2)C(=O)C1 [1-{6-[2-(6-Amino-5-nitropyridin-2-ylamino)-ethylamino]-[2,3′]bipyridinyl-3-yl}-4-methyl-piperazin-2-one]",≤ 10000
10,CCOC(=O)c1cnc(NCCc2cccc(OC)c2)nc1-c1ccc(C#N)cc1 [ethyl 4-(4-cyanophenyl)-2-{[2-(3-methoxyphenyl)ethyl]amino}pyrimidine-5-carboxylate],≤ 10000
11,c1ccc(-c2ccnc(NCCNc3ccccn3)n2)cc1 [(4-phenylpyrimidin-2-yl)[2-(2-pyridylamino)ethyl]amine],≤ 10000
12,"Nc1nc(NCCNc2ncc(-n3cnc(-c4ccccc4)c3)c(-c3ccc(Cl)cc3Cl)n2)ccc1[N+](=O)[O-] [{2-[(6-amino-5-nitro(2-pyridyl))amino]ethyl}[4-(2,4-dichlorophenyl)-5-(4-phenylimidazolyl)pyrimidin-2-yl]amine]",≤ 1000
13,"O=C(NCc1cc(Cl)cc(Cl)c1)c1ccc(-c2ccnc(NCCNc3ccc([N+](=O)[O-])cn3)n2)cc1 [N-[(3,5-dichlorophenyl)methyl]{4-[2-({2-[(5-nitro(2-pyridyl))amino]ethyl}amino)pyrimidin-4-yl]phenyl}carboxamide]",≤ 10000
14,CCOC(=O)c1cnc(NCCNc2ccc([N+](=O)[O-])cn2)nc1-c1cccc(C(F)(F)F)c1 [ethyl 2-({2-[(5-nitro(2-pyridyl))amino]ethyl}amino)-4-[3-(trifluoromethyl)phenyl]pyrimidine-5-carboxylate],≤ 10000
15,"COc1nc(NCCNc2ncc(-c3ncc[nH]3)c(-c3ccc(Cl)cc3Cl)n2)ccc1[N+](=O)[O-] [[4-(2,4-dichlorophenyl)-5-imidazol-2-ylpyrimidin-2-yl]{2-[(6-methoxy-5-nitro(2-pyridyl))amino]ethyl}amine]",≤ 1000
16,CCOC(=O)c1cnc(NCCc2ccccn2)nc1-c1cccc([N+](=O)[O-])c1 [ethyl 4-(3-nitrophenyl)-2-[(2-(2-pyridyl)ethyl)-amino]pyrimidine-5-carboxylate],≤ 10000
17,CCOC(=O)c1cnc(NCCc2ccccn2)nc1-c1ccco1 [ethyl 4-(2-furyl)-2-[(2-(2-pyridyl)ethyl)amino]pyrimidine-5-carboxylate],≤ 10000
18,Oc1ccc(-c2ccnc(NCCCOc3ccc(Cl)cc3)n2)cc1 [4-(2-{[3-(4-chlorophenoxy)propyl]amino}pyrimidin-4-yl)phenol],≤ 10000
19,"Cc1nccn1-c1cnc(NCCNc2ccc([N+](=O)[O-])cn2)nc1-c1ccc(Cl)cc1Cl [[4-(2,4-dichlorophenyl)-5-(2-methylimidazolyl)pyrimidin-2-yl]{2-[(5-nitro(2-pyridyl))amino]ethyl}amine]",≤ 1000
20,"CCOC(=O)c1cnc(NCCNc2ccc([N+](=O)[O-])cn2)nc1-c1cc(C(F)(F)F)cc(C(F)(F)F)c1 [ethyl 4-[3,5-bis(trifluoromethyl)-phenyl]-2-({2-[(5-nitro(2-pyridyl))amino]ethyl}amino)pyrimidine-5-carboxylate]",≤ 10000
21,CCOC(=O)c1c(CC)nc(NCCNc2ncccc2[N+](=O)[O-])nc1-c1ccc(C(N)=O)cc1 [ethyl 4-(4-carbamoylphenyl)-6-ethyl-2-({2-[(3-nitro(2-pyridyl))amino]ethyl}amino)pyrimidine-5-carboxylate],≤ 10000
22,CCc1cnc(NCCNc2ccccn2)nc1-c1ccccc1,≤ 10000
23,"COc1ccc(CNc2nccc(-c3ccc(C(N)=O)cc3)n2)cc1OC [4-(2-{[(3,4-dimethoxyphenyl)methyl]amino}-pyrimidin-4-yl)benzamide]",≤ 10000
